The record followed here is patent US11780839B2, “Compounds for treating Huntington's disease” (PTC THERAPEUTICS, INC., priority 2018, dated 2023).

The test system of this assay is Endogenous Huntingtin Protein. As to the kind of experiment: Endogenous Huntingtin Protein Assay (ELISA-based Meso Scale Discovery electrochemiluminescence). Particulars: MSD electrochemiluminescence, Table 1. The format is cell-based. Put shortly:
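Sandwich MSD electrochemiluminescence immunoassay. Capture used MW1 (expanded polyglutamine) or MAB2166 antibody coated at 1 μg/mL overnight at 4 °C. Samples were bound overnight at 4 °C, then a rabbit monoclonal detection antibody and SULFO-TAG anti-rabbit, each at 0.25 μg/mL, were applied for 1 h at room temperature.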
A general note: In an ELISA, binding on a coated surface is turned into a signal by an enzyme label.
The term IC50 denotes the concentration needed to halve the response being measured. A lower IC50 goes with greater potency in that assay. Consider `Cc1ncc(-c2ccc(-c3cnc(N4CCC(NC(C)C)C4)nn3)c(O)c2)o1` (stereo not drawn) [Cpd 289, 5-(2-methyl-1,3-oxazol-5-yl)-2-(3-{3-[(propan-2-yl)amino]pyrrolidin-l-yl}-1,2,4-triazin-6-yl)phenol], for which the IC50 is not above 100 nM.

`COc1cc(-c2ccc(-c3cnc(N[C@H]4CC(C)(C)NC(C)(C)[C@H]4F)nn3)c(O)c2)ncn1` [Cpd 290, 2-(3-{[(3S,4S)-3-fluoro-2,2,6,6-tetramethylpiperidin-4-yl]amino}-1,2,4-triazin-6-yl)-5-(6-methoxypyrimidin-4-yl)phenol] returned an IC50 not above 100 nM. The result for `Cn1nnc(-c2ccc(-c3cnc(N[C@H]4CC(C)(C)NC(C)(C)[C@H]4F)nn3)c(O)c2)n1` [Cpd 291, 2-(3-{[(3S,4S)-3-fluoro-2,2,6,6-tetramethylpiperidin-4-yl]amino}-1,2,4-triazin-6-yl)-5-(2-methyl-2H-tetrazol-5-yl)phenol] reads not above 100 nM; that for `CC1(C)C[C@H](Nc2ncc(-c3ccc(-c4ncns4)cc3O)nn2)[C@H](F)C(C)(C)N1` [Cpd 292, 2-(3-{[(3S,4S)-3-fluoro-2,2,6,6-tetramethylpiperidin-4-yl]amino}-1,2,4-triazin-6-yl)-5-(1,2,4-thiadiazol-5-yl)phenol], not above 100 nM. In the case of `CO[C@H]1[C@@H](N(C)c2ncc(-c3ccc(-c4cn[nH]c4)cc3O)nn2)CC(C)(C)NC1(C)C` [Cpd 293, 2-(3-{[(3S,4S)-3-methoxy-2,2,6,6-tetramethylpiperidin-4-yl](methyl)amino}-1,2,4-triazin-6-yl)-5-(1H-pyrazol-4-yl)phenol] it was 100 to 500 nM; in that of `CC(C)NC1CCN(c2ncc(-c3ccc(-c4ccc5nccn5n4)cc3O)nn2)C1` (stereo not shown) [Cpd 294], not above 100 nM; in that of `CNC1CCN(c2ncc(-c3ccc(-c4cnn(C)n4)cc3O)nn2)C1` (stereo not shown) [Cpd 295, 2-{3-[3-(methylamino)pyrrolidin-1-yl]-1,2,4-triazin-6-yl}-5-(2-methyl-2H-1,2,3-triazol-4-yl)phenol], not above 100 nM. The result for `CNC1CCN(c2ncc(-c3ccc(-c4ccn(C)n4)cc3O)nn2)C1` (stereo not shown) [Cpd 296, 2-{3-[3-(methylamino)pyrrolidin-1-yl]-1,2,4-triazin-6-yl}-5-(1-methyl-1H-pyrazol-3-yl)phenol] reads 1000 to 3000 nM; that for `CC(C)CNC1CCN(c2ncc(-c3ccc(-c4cn[nH]c4)cc3O)nn2)C1` (stereo not shown) [Cpd 297], not above 100 nM. The molecule `CC1(C)C[C@H](Nc2ncc(-c3ccc(-c4cn[nH]c4)cc3O)nn2)[C@H](O)C(C)(C)N1` [Cpd 298, (3S,4S)-4-({6-[2-hydroxy-4-(1H-pyrazol-4-yl)phenyl]-1,2,4-triazin-3-yl}amino)-2,2,6,6-tetramethylpiperidin-3-ol] displayed an IC50 of 1000 to 3000 nM. `Cc1ncc(-c2ccc(-c3cnc(N4CC5(CCN(C)CC5)C4)nn3)c(O)c2)o1` [Cpd 299, 2-[3-(7-methyl-2,7-diazaspiro[3.5]nonan-2-yl)-1,2,4-triazin-6-yl]-5-(2-methyl-1,3-oxazol-5-yl)phenol] had an IC50 not above 100 nM. `CN(c1ncc(-c2ccc(-c3cc(F)c4c(c3)ncn4C)cc2O)nn1)C1CC(C)(C)NC(C)(C)C1` [Cpd 300, 5-(7-fluoro-1-methyl-1H-benzimidazol-5-yl)-2-{3-[methyl(2,2,6,6-tetramethylpiperidin-4-yl)amino]-1,2,4-triazin-6-yl}phenol] returned an IC50 of 1000 to 3000 nM. In the case of `CN(c1ncc(-c2ccc(-c3cc4nc[nH]c4c(F)c3F)cc2O)nn1)C1CC(C)(C)NC(C)(C)C1` [Cpd 301, 5-(6,7-difluoro-1H-benzimidazol-5-yl)-2-{3-[methyl(2,2,6,6-tetramethylpiperidin-4-yl)amino]-1,2,4-triazin-6-yl}phenol], the IC50 was not above 100 nM. The result for `CN(c1ncc(-c2ccc(-c3cc4ncn(C)c4c(F)c3F)cc2O)nn1)C1CC(C)(C)NC(C)(C)C1` [Cpd 302, 5-(6,7-difluoro-1-methyl-1H-benzimidazol-5-yl)-2-{3-[methyl(2,2,6,6-tetramethylpiperidin-4-yl)amino]-1,2,4-triazin-6-yl}phenol] reads more than 500 nM; that for `Cc1cc(-c2ccc(-c3cnc(N(C)C4CC(C)(C)NC(C)(C)C4)nn3)c(O)c2)nn2ccnc12` [Cpd 303, 5-(8-methylimidazo[1,2-b]pyridazin-6-yl)-2-{3-[methyl(2,2,6,6-tetramethylpiperidin-4-yl)amino]-1,2,4-triazin-6-yl}phenol], not above 100 nM. The result for `COc1cc(-c2ccc(-c3cnc(N(C)C4CC(C)(C)NC(C)(C)C4)nn3)c(O)c2)nn2ccnc12` [Cpd 304, 5-(8-methoxyimidazo[1,2-b]pyridazin-6-yl)-2-{3-[methyl(2,2,6,6-tetramethylpiperidin-4-yl)amino]-1,2,4-triazin-6-yl}phenol] reads not above 100 nM. In the case of `CC1(C)CC(Nc2ncc(-c3ccc(-c4cncnn4)cc3O)nn2)CC(C)(C)N1` [Cpd 305, 2-{3-[(2,2,6,6-tetramethylpiperidin-4-yl)amino]-1,2,4-triazin-6-yl}-5-(1,2,4-triazin-6-yl)phenol] it was not above 100 nM. The molecule `Oc1cc(-c2cn[nH]c2)ccc1-c1cnc(N2C[C@@H]3CCCN[C@@H]3C2)nn1` [Cpd 306, 2-{3-[(4aS,7aS)-octahydro-6H-pyrrolo[3,4-b]pyridin-6-yl]-1,2,4-triazin-6-yl}-5-(1H-pyrazol-4-yl)phenol] had an IC50 of 100 to 500 nM.

Regarding `CC(C)NC1CCN(c2ncc(-c3ccc(-c4cnc5c(cnn5C)c4)cc3O)nn2)C1` (stereo not shown) [Cpd 307, 5-(1-methyl-1H-pyrazolo[3,4-b]pyridin-5-yl)-2-(3-{3-[(propan-2-yl)amino]pyrrolidin-1-yl}-1,2,4-triazin-6-yl)phenol], the IC50 was more than 500 nM. In turn, `CC(C)NC1CCN(c2ncc(-c3ccc(-c4ncco4)cc3O)nn2)C1` (stereo not drawn) [Cpd 308, 5-(1,3-oxazol-2-yl)-2-(3-{3-[(propan-2-yl)amino]pyrrolidin-l-yl}-1,2,4-triazin-6-yl)phenol] showed an IC50 of 100 to 500 nM. The result for `CN1CC[C@H](Oc2ncc(-c3ccc(-c4cn[nH]c4)cc3O)nn2)C1` [Cpd 309, 2-(3-{[(3S)-1-methylpyrrolidin-3-yl]oxy}-1,2,4-triazin-6-yl)-5-(1H-pyrazol-4-yl)phenol] reads more than 500 nM; that for `CN1CCC[C@H]2CN(c3ncc(-c4ccc(-c5cn[nH]c5)cc4O)nn3)C[C@H]21` [Cpd 310, 2-{3-[(4aS,7aS)-1-methyloctahydro-6H-pyrrolo[3,4-b]pyridin-6-yl]-1,2,4-triazin-6-yl}-5-(1H-pyrazol-4-yl)phenol], 100 to 500 nM; that for `CN1CCO[C@@H]2CN(c3ncc(-c4ccc(-c5cn[nH]c5)cc4O)nn3)C[C@@H]21` [Cpd 311, 2-{3-[(4aS,7aR)-4-methylhexahydropyrrolo[3,4-b][1,4]oxazin-6(2H)-yl]-1,2,4-triazin-6-yl}-5-(1H-pyrazol-4-yl)phenol], 1000 to 3000 nM.

On to `Oc1cc(-c2cn[nH]c2)ccc1-c1cnc(N2CCC(NC3COC3)C2)nn1` (stereo not shown) [Cpd 312, 2-(3-{3-[(oxetan-3-yl)amino]pyrrolidin-1-yl}-1,2,4-triazin-6-yl)-5-(1H-pyrazol-4-yl)phenol], for which the IC50 fell in the range of 1000 to 3000 nM.

`Cn1cc(-c2ccc(-c3cnc(N4CCC(NC5COC5)C4)nn3)c(O)c2)cn1` (stereo not shown) [Cpd 313, 5-(1-methyl-1H-pyrazol-4-yl)-2-(3-{3-[(oxetan-3-yl)amino]pyrrolidin-1-yl}-1,2,4-triazin-6-yl)phenol]: the IC50 is 1000 to 3000 nM.
